Molecular target: T1, human farnesol receptor protein hFXR (Homo sapiens, UniProt Q96RI1)
T1 construct: hexahistidine (His6)
T1 sequence (Q96RI1 1-486): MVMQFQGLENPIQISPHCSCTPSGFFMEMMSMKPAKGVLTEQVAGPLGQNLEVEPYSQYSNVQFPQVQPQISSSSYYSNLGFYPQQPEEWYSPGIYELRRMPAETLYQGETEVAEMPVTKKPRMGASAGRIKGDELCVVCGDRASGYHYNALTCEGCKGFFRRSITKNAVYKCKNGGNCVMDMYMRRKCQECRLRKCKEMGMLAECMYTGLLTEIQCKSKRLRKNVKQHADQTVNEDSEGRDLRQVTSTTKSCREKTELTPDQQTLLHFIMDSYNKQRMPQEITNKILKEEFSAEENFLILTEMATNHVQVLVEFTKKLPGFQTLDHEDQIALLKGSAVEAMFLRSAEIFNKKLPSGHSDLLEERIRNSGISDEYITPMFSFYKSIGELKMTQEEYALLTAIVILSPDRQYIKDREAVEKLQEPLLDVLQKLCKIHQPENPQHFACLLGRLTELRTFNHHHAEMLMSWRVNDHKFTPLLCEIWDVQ
Experiment: AlphaScreen assay of FXR agonist activity in vitro: effect on binding between human farnesol receptor protein and its coactivator (SRC1-2)
Format: biochemical
Settings: hFXR 100 nM, peptide bSRC1-2 50 nM, 2 hr incubation at room temperature
Experimental: FXR agonist activity in vitro for the chemicals prepared in the above examples is measured.
AlphaScreen-based assays are performed with a hexahistidine detection kit manufactured by Perkins-Elmer, for measuring the effect of chemical compounds on the binding between human farnesol receptor protein and its coactivator (SRC1-2), the method is shown as follows:
1) Preparing a mixture comprising human farnesol receptor protein hFXR (100 nM, 15 μL/well), peptide bSRC1-2 (50 nM, 15 μL/well), 10× AlphaScreen buffer solution (15 μL/well and DI water (60 μL/well), and then transferring 105 μL/well of the mixture to a 96-well plate; 2) Diluting the chemicals prepared in the above examples by twice gradient 12×, with 15 μL/well; 3) Adding donor beads and acceptor beads, 30 μL/well in total; (attention: the beads are light-sensitive) 4) Incubating in dark at room temperature for 2 hr; 5) Transferring 40 μL/well of the mixture to a 384-well plate with 3 replicates, and then centrifuging at 1000 rpm for 1 min, to make liquid mixed well underneath the wells. (attention: photopathic operation); 6) In a dark room, reading the plate (by Homogeneous luminescent immunoassay system) to obtain EC50 with a GraphPad Prism5 software.

| Molecule | EC50 |
| --- | --- |
| 2-(5-((5-cyclopropyl-3-(2,6-dichlorophenyl)isoxazol-4-yl)methoxy)hexahydrocyclopenta[c]pyrrol-2(1H)-yl) benzo[d]thiazole-6-carboxylic Acid [Example 27] | > 1000 nM |
| O=C(O)c1cccc(C(=O)N2CCC3(CC2)CC(OCc2c(-c4c(Cl)cccc4Cl)noc2C2CC2)C3)c1 [Example 1] | > 1000 nM |
| O=C(O)c1cccc(C(=O)N2CC3(CC(OCc4c(-c5c(Cl)cccc5Cl)noc4C4CC4)C3)C2)c1 [Example 3, 3-(6((5-cyclopropyl-3(2,6-dichlorophenyl)isoxazol-4-yl)methoxy)-2-azaspiro[3.3]heptan-2-carbonyl)benzoic Acid] | > 1000 nM |
| O=C(O)c1cccc(C(=O)N2CC3CCC(C2)C3OCc2c(-c3c(Cl)cccc3Cl)noc2C2CC2)c1 (stereo not shown) [Example 5, 3-(8((5-cyclopropyl-3-(2,6-dichlorophenyl)isoxazol-4-yl)methoxy)3-azabicyclo[3.2.1]octan-3-carbonyl)benzoic Acid] | > 1000 nM |
| O=C(O)c1ccc2nc(N3CC4CCC(C3)C4OCc3c(-c4c(Cl)cccc4Cl)noc3C3CC3)sc2c1 (stereo not shown) [Example 6, 2-(8-((5-cyclopropyl-3-(2,6-dichlorophenyl)isoxazol-4-yl)methoxy)-3-azabicyclo[3.2.1]octan-3-yl)benzo[d]thiazole-6-carboxylic Acid] | 100 to 1000 nM |
| O=C(O)c1cccc(N2CC3(CC(OCc4c(-c5c(Cl)cccc5Cl)noc4C4CC4)C3)C2)c1 [Example 9, 3-(6-((5-cyclopropyl-3-(2,6-dichlorophenyl)isoxazol-4-yl)methoxy)-2-azaspiro[3.3]heptan-2-yl)benzoic Acid] | 100 to 1000 nM |
| O=C(O)c1cccc(N2CCC3(CC(OCc4c(-c5c(Cl)cccc5Cl)noc4C4CC4)C3)C2)c1 (stereo not shown) [Example 10, 3-(2-((5-cyclopropyl-3-(2,6-dichlorophenyl)isoxazol-4-yl)methoxy)-6-azaspiro[3.4]octan-6-yl)benzoic Acid] | 100 to 1000 nM |
| COc1cc(C(=O)O)cc2sc(N3CCC4(CC(OCc5c(-c6c(Cl)cccc6Cl)noc5C5CC5)C4)C3)nc12 (stereo not shown) [Example 12, 2-(2-((5-cyclopropyl-3-(2,6-dichlorophenyl)isoxazol-4-yl)methoxy)-6-azaspiro[3.4]octan-6-yl)-4-methoxybenzo[d]thiazole-6-carboxylic Acid] | 100 to 1000 nM |

Continued, values first:

| EC50 | Molecule |
| --- | --- |
| < 100 nM | O=C(O)c1ccc2nc(N3CCC4(CC3)CC(OCc3c(-c5c(Cl)cccc5Cl)noc3C3CC3)C4)sc2c1 [Example 2, 2-(2((5-cyclopropyl-3-(2,6-dichlorophenyl)isoxazol-4-yl)methoxy)-7-azaspiro[3.5]nonan-7-yl)benzo[d]thiazole-6-carboxylic Acid] |
| < 100 nM | O=C(O)c1ccc2nc(N3CC4(CC(OCc5c(-c6c(Cl)cccc6Cl)noc5C5CC5)C4)C3)sc2c1 [Example 4, 2-(6((5-cyclopropyl-3-(2,6-dichlorophenyl)isoxazol-4-yl)methoxy)2-azaspiro[3.3]heptan-2-yl)benzo[d]thiazole-6-carboxylic Acid] |
| < 100 nM | O=C(O)c1cccc(C(=O)N2CCC3(CC(OCc4c(-c5c(Cl)cccc5Cl)noc4C4CC4)C3)C2)c1 (stereo not shown) [Example 7, 3-(2-((5-cyclopropyl-3-(2,6-dichlorophenyl)isoxazol-4-yl)methoxy)-6-azaspiro[3.4]octan-6-carbonyl)benzoic Acid] |
| < 100 nM | O=C(O)c1ccc2nc(N3CCC4(CC(OCc5c(-c6c(Cl)cccc6Cl)noc5C5CC5)C4)C3)sc2c1 (stereo not shown) [Example 8, 2-(2-((5-cyclopropyl-3-(2,6-dichlorophenyl)isoxazol-4-yl)methoxy)-6-azaspiro[3.4]octan-6-yl)benzo[d]thiazole-6-carboxylic Acid] |
| < 100 nM | O=C(O)c1ccc2nc(N3CC4CCCCC(C3)C4OCc3c(-c4c(Cl)cccc4Cl)noc3C3CC3)sc2c1 (stereo not shown) [Example 11, 2-(10-((5-cyclopropyl-3-(2,6-dichlorophenyl)isoxazol-4-yl)methoxy)-8-azabicyclo[4.3.1]decan-8-yl)benzo[d]thiazole-6-carboxylic Acid] |
